Laboratory results reported in publication PMC9326219, “Design and Synthesis of 1-O- and 6′-C-Modified Heparan Sulfate Trisaccharides as Human Endo-6-O-Sulfatase 1 Inhibitors” (Frontiers in Chemistry, 2022).

What was measured:
[1] = target: T1, human endo-6-O-sulfatase 1 (Sulf-1) (Homo sapiens, UniProt Q8IWU6); assay: fluorescent 4-MUS hydrolysis assay with purified human Sulf-1; kinetic fit to competitive model (IC50 […]); type: biochemical
T1 construct: gene SULF1

[2] = target: T1, human endo-6-O-sulfatase 1 (Sulf-1); assay: fluorescent 4-MUS hydrolysis assay with purified human Sulf-1; type: biochemical

Ki [1] [nM]	IC50 [2] [nM]	SMILES
140	–	CO[C@@H]1O[C@@H](C(=O)O)[C@@H](O[C@H]2O[C@H](COS(N)(=O)=O)[C@@H](O[C@@H]3O[C@@H](C(=O)O)[C@@H](O)[C@H](O)[C@H]3OS(=O)(=O)O)[C@H](O)[C@H]2NS(=O)(=O)O)[C@H](O)[C@H]1OS(=O)(=O)O [compound 5, IdoA2OS-GlcNS6OSO2NH2-IdoA2OS-OMe]
–	4600	CO[C@@H]1O[C@@H](C(=O)O)[C@@H](O[C@H]2O[C@H](CNS(=O)(=O)O)[C@@H](O[C@@H]3O[C@@H](C(=O)O)[C@@H](O)[C@H](O)[C@H]3OS(=O)(=O)O)[C@H](O)[C@H]2NS(=O)(=O)O)[C@H](O)[C@H]1OS(=O)(=O)O [compound 6, IdoA2OS-GlcNS6NS-IdoA2OS-OMe]
